For 23 compounds, IC50 results are on record in patent US11827628B2, “Compositions and methods for inhibition of the JAK pathway” (Rigel Pharmaceuticals, Inc., priority 2005, dated 2023).

The structures appear in SMILES notation.

Test [1] relates to IL-4 stimulated expression of CD23 in human Ramos B cells (JAK-1 and JAK-3). Put plainly: Assay for Ramos B-Cell Line Stimulated with IL-4 (CD23 upregulation, FACS). It is filed as cell-based. The settings on record: Homo sapiens, Ramos, Ramos B cells stimulated with IL-4, CD23 expression by FACS; read-out: IC50, Example 41. A digest of the protocol: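 Compound effect on IL-4-driven JAK1/JAK3 signalling is gauged as CD23 surface expression, measured by FACS after 20-24 h of stimulation with IL-4 at 50 units/mL final. A 1 h compound pre-treatment at 37 °C precedes stimulation, and IC50 is derived from the results.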
For orientation: A flow cytometer gives signals particle by particle.

The test system of test [2] is Primary human T-cells. Put plainly: Primary Human T-Cell Proliferation Assay Stimulated with IL-2 (CellTiter-Glo). It is filed as cell-based. To be noted: Homo sapiens, T-cell, primary human T-cells stimulated with IL-2, proliferation; read-out: IC50, Example 42. In a few lines: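 Peripheral blood T-cells pre-activated with anti-CD3/anti-CD28 and IL-2 were washed free of IL-2, then cultured with compound plus IL-2 for 72 hours at 37° C, duplicate wells. Viability read as ATP by CellTiter-Glo luminescence; IC50 reported.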
(ATP-based viability assays read luminescence as a measure of living cells.)

The term IC50 denotes the concentration needed to halve the response being measured. Take `CC#CCOc1ccc(Nc2nc(Nc3ccc(C)c(S(N)(=O)=O)c3)ncc2F)cc1` [VI-61, N2-(3-Aminosulfonyl-4-methylphenyl)-N4-[4-(but-2-ynyloxy)phenyl]-5-fluoro-2,4-pyrimidinediamine]: the IC50 in test [1] turned out to be 99 nM; in test [2], 185 nM.
As to `C#CCOc1ccc(Nc2nc(Nc3ccc(C(C)C)c(S(N)(=O)=O)c3)ncc2F)cc1` [VI-63, N2-[3-Aminosulfonyl-4-(2-propyl)phenyl]-5-fluoro-N4-[4-(prop-2-ynyloxy)phenyl]-2,4-pyrimidinediamine], the 50% inhibitory concentration (IC50) in test [1] came to 160 nM; in test [2] it was 363 nM.
For `C#CCNc1ccc(Nc2nc(Nc3ccc(C)c(S(N)(=O)=O)c3)ncc2F)cc1` [VI-65, N2-(3-Aminosulfonyl-4-methylphenyl)-5-fluoro-N4-[4-(prop-2-ynylamino)phenyl]-2,4-pyrimidinediamine], in that order: 90.6 nM and 209 nM.
Take `C#CCOc1ccc(Nc2nc(Nc3ccc(C)c(S(=O)(=O)NC)c3)ncc2F)cc1` [VI-68, 5-Fluoro-N2-(4-methyl-3-methylaminosulfonylphenyl)-N4-[4-(prop-2-ynyloxy)phenyl]-2,4-pyrimidinediamine]: the concentration for half-maximal inhibition (IC50) in test [1] came out at 102 nM; in test [2], 742 nM.
`C#CCOc1ccc(Nc2nc(Nc3ccc(N4CCN(C)CC4)c(S(N)(=O)=O)c3)ncc2F)cc1` [VI-70, N2-[3-Aminosulfonyl-4-(1-methylpiperazin-4-yl)phenyl]-5-fluoro-N4-[4-(prop-2-ynyloxy)phenyl]-2,4-pyrimidinediamine]: the IC50 was 70.6 nM in test [1] and 311 nM in test [2].
For the compound `C#CCOC(=O)NCc1ccc(Nc2nc(Nc3cccc(S(N)(=O)=O)c3)ncc2F)cc1` [VI-74, N2-(3-Aminosulfonylphenyl)-5-fluoro-N4-{4-[(prop-2-ynyloxy)carbonylaminomethyl]phenyl}-2,4-pyrimidinediamine], the half-maximal inhibitory concentration (IC50) in test [1] came out at 94.6 nM; in test [2], 348 nM.
As to `NS(=O)(=O)c1cccc(Nc2ncc(F)c(Nc3ccc(CCCF)cc3)n2)c1` [VI-83, N2-(3-Aminosulfonylphenyl)-5-fluoro-N4-[4-(3-fluoropropyl)phenyl]-2,4-pyrimidinediamine], the IC50 in test [1] was found to be 113 nM; in test [2], 293 nM.
On the same counts, the results for `Cc1ccc(Nc2ncc(F)c(Nc3ccc(CCCF)cc3)n2)cc1S(N)(=O)=O` [VI-84, N2-(3-Aminosulfonyl-4-methylphenyl)-5-fluoro-N4-[4-(3-fluoropropyl)phenyl]-2,4-pyrimidinediamine] are 132 nM and 514 nM.
Regarding `NS(=O)(=O)c1ccc(Nc2ncc(F)c(Nc3ccc(CCCO)cc3)n2)cc1` [VI-85, N2-(4-Aminosulfonylphenyl)-5-fluoro-N4-[4-(3-hydroxypropyl)phenyl]-2,4-pyrimidinediamine], the concentration for half-maximal inhibition (IC50) in test [1] was determined as 129 nM; in test [2] it was 762 nM.
Regarding `NS(=O)(=O)c1cccc(Nc2ncc(F)c(Nc3ccc(CCCO)cc3)n2)c1` [VI-86, N2-(3-Aminosulfonylphenyl)-5-fluoro-N4-[4-(3-hydroxypropyl)phenyl]-2,4-pyrimidinediamine], the IC50 came to 153 nM in test [1] and 178 nM in test [2].
`NS(=O)(=O)c1ccc(Nc2ncc(F)c(Nc3ccc(CCCCO)cc3)n2)cc1` [VI-88, N2-(4-Aminosulfonylphenyl)-5-fluoro-N4-[4-(4-hydroxybutyl)phenyl]-2,4-pyrimidinediamine]: the values for the half-inhibitory concentration (IC50) in test [1] and in test [2] were 216 nM and 1190 nM, respectively.
As to `NS(=O)(=O)c1cccc(Nc2ncc(F)c(Nc3ccc(CCCCO)cc3)n2)c1` [VI-89, N2-(3-Aminosulfonylphenyl)-5-fluoro-N4-[4-(4-hydroxybutyl)phenyl]-2,4-pyrimidinediamine], the values for the IC50 in test [1] and in test [2] were 132 nM and 171 nM, respectively.
For the compound `NS(=O)(=O)c1cccc(Nc2ncc(F)c(Nc3ccc(CCCCF)cc3)n2)c1` [VI-92, N2-(3-Aminosulfonylphenyl)-5-fluoro-N4-[4-(4-fluorobutyl)phenyl]-2,4-pyrimidinediamine], the half-maximal inhibitory concentration (IC50) in test [1] is 83.5 nM; in test [2], 107 nM.
On to `NS(=O)(=O)c1cc(Nc2ncc(F)c(Nc3ccc(O)cc3)n2)ccc1F` [VI-100, N2-(3-Aminosulfonyl-4-fluorophenyl)-5-fluoro-N4-(4-hydroxyphenyl)-2,4-pyrimidinediamine], for which the IC50 was 321 nM in test [1] and 74.3 nM in test [2].
On to `Cc1ccc(Nc2ncc(F)c(Nc3ccc(O)cc3)n2)cc1S(N)(=O)=O` [VI-102, N2-(3-Aminosulfonyl-4-methylphenyl)-5-fluoro-N4-[4-hydroxyphenyl]-2,4-pyrimidinediamine], for which the 50% inhibitory concentration (IC50) turned out to be 183 nM in test [1] and 135 nM in test [2].
On to `COc1ccc(Nc2nc(Nc3cccc(S(N)(=O)=O)c3)ncc2F)cc1Cl` [VI-107, N2-(3-Aminosulfonylphenyl)-5-fluoro-N4-(4-methoxy-3-chlorophenyl]-2,4-pyrimidinediamine], for which the results for the IC50 in test [1] and in test [2] were 159 nM and 74.1 nM, respectively.
In the case of `NS(=O)(=O)c1cccc(Nc2ncc(F)c(Nc3ccc(Cl)c(Cl)c3)n2)c1` [VI-110, N2-(3-Aminosulfonylphenyl)-N4-(3,4-dichlorophenyl)-5-fluoro-2,4-pyrimidinediamine], the IC50 turned out to be 83.6 nM in test [1] and 345 nM in test [2].
On the same counts, the results for `Cc1ccc(Nc2ncc(F)c(Nc3ccc(C)c(S(N)(=O)=O)c3)n2)cc1S(N)(=O)=O` [VI-114, N2,N4-Bis-(3-aminosulfonyl-4-methylphenyl)-5-fluoro-2,4-pyrimidinediamine] are 210 nM and 2240 nM.
On to `COc1ccc(Nc2nc(Nc3ccc(N4CCN(C)CC4)c(S(N)(=O)=O)c3)ncc2F)cc1Cl` [VI-116, N2-[3-Aminosulfonyl-4-(4-methylpiperazine-1-yl)phenyl]-N4-(3-chloro-4-methoxyphenyl)-5-fluoro-2,4-pyrimidinediamine], for which the half-inhibitory concentration (IC50) in test [1] came to 31.1 nM; in test [2], 174 nM.
Take `COc1ccc(Nc2nc(Nc3cccc(S(N)(=O)=O)c3)ncc2F)cn1` [VII-6, N2-(3-Aminosulfonylphenyl)-5-fluoro-N4-(2-methoxypyrid-5-yl)-2,4-pyrimidinediamine]: the IC50 is 102 nM in test [1] and 2000 nM in test [2].
Take `COc1ccc(Nc2nc(Nc3ccc(C)c(S(N)(=O)=O)c3)ncc2F)nc1N` [VII-9, N2-(3-Aminosulfonyl-4-methylphenyl)-N4-[2-amino-3-methoxypyrid-6-yl]-5-fluoro-2,4-pyrimidinediamine]: the half-maximal inhibitory concentration (IC50) in test [1] amounted to 246 nM; in test [2], 2720 nM.
On to `CN1C(=O)C(C)(C)S(=O)(=O)c2ccc(Nc3nc(Nc4ccc(S(N)(=O)=O)cc4)ncc3F)cc21` [VII-12, N2-(4-Aminosulphonylphenyl)-5-fluoro-N4-(2,2,4-trimethyl-1,1,3-trioxo-benzo[1,4]thiazin-6-yl)-2,4-pyrimidinediamine], for which the IC50 in test [1] was 602 nM; in test [2], 6690 nM.
Turning to `Cc1ccc(Nc2ncc(C)c(Nc3ccc4c(c3)NC(=O)CO4)n2)cc1S(N)(=O)=O` [VII-30, N2-(3-Aminosulphonyl-4-methylphenyl)-5-methyl-N4-(3-oxo-benz[1,4]oxazin-6-yl)-2,4-pyrimidinediamine], the half-maximal inhibitory concentration (IC50) in test [1] is 35.8 nM; in test [2], 26.8 nM.
